The values below come from article PMC7275090, “Mode of action of teixobactins in cellular membranes” (Nature Communications, 2020).

For data set [1] the following is noted: vancomycin, unlike teixobactins; cited from earlier work. The source says: In summary, a picture of a balanced binding mode emerges in which teixobactins use the conserved pyrophosphate as firm, specific anchor, whereas the interaction with the sugar-pentapeptide headgroup is more loosely defined[28],[29]. This behaviour enables teixobactins to recognize different cognate cell-wall building blocks and wall teichoic acids precursors, such as Lipid I, Lipid II, Lipid III, and undecaprenyl pyrophosphate that all have the PPi moiety in common but feature different headgroups. The capacity to recognize several conserved precursor molecules both maximizes the number of ...

Data set [2] in a line: Fluorescence microscopy of GUVs doped with NBD-labelled Lipid II (Lipid II clustering). Particulars: DOPC GUVs, 1 μM peptide, 4 h.
Experimental: GUVs were prepared using the electroformation method. The GUV cell is a self-assembled system which consists of a 5 mm-thick Teflon plate which is aligned with two titanium electrodes in a closed Teflon chamber. 1.5 μL of 0.5 mM DOPC doped with NBD-labelled Lipid II (0.1 mol%) were brushed on the electrodes. Next, the chamber was filled with 350 μL 0.1 M sucrose solution; the electrodes dipped in and then connected to a power supply which generated a sine wave of voltage 2.5 V at a frequency of 10 Hz for 90 min. Each microscopy slide (μ-slide 8 well, Ibidi) was covered with 350 μL BSA solution (1 mg/mL). To detach the GUVs from the electrodes the power supply was changed to square wave of voltage 2 V at a frequency of 2 Hz for 15 min. The slides were immersed in 300 μL 0.1 mM glucose solution to which 80 μL of GUVs were added. These were incubated for 4 h with 1 μM [R4L10]-teixobactin and observed by confocal microscopy. Anionic GUVs were prepared using a homemade electroformation setup with ITO coverslips (18 × 18 mm, 15–30 Ω, SPI supplies). On both slips, 3 μL of a chloroform–methanol (1:1, vol/vol) solution containing 1 mM of a 3:1 mixture of DOPC:DOPG (mol/mol) and 0.1 mol% NBD-labelled Lipid II was deposited and dried in a vacuum desiccator. With these slips, the electroformation chamber was assembled and filled with 0.1 M sucrose solution. The GUV cell was connected to the power supply and an alternating current applied (1 V, 10 Hz). GUV formation was carried out overnight.
Microscopy: GUVs were imaged using Zeiss LSM 880 with ×63/1.2NA glycerol objective lens. The NBD label appeared green upon excitation by the 488 nm laser. The emission range for detection was 530–545 nm (λem peak = 539 nm). The brightfield images were used for detection and location of the GUVs without a fluorescent signal and also as a control to observe their shape.
A short description of data set [3]: ssNMR 15N T1rho relaxation (dynamics of bound teixobactin), Lys-Lipid II. Conditions: [L10] analogue, 60 kHz MAS. Here is the method: Relaxation studies: ^1H-detected ^15N T1rho relaxation experiments were carried out at 950 and 700 MHz magnetic field, respectively, using 60 kHz MAS[51]. The ^15N transverse magnetization decay was probed with a ^15N spinlock field of 17.5 kHz. For the bulk, we measured the intensity of the most intense signal at ~8.80 ^1H ppm. T1rho trajectories were fit to single exponentials.
Lipid I or II-doped multi-laminar vesicle preparations: DOPC or DOPG lipids were mixed with Lipid I or II in 1:1 MeOH:CHCl3 at the final Lipid I or II molar ratio (0–4 mol%/mol). The mixtures were dried and the lipid films were hydrated by vortexing with 2 mL of a teixobactin solution in 40 mM phosphate, 25 mM NaCl, pH 7.0.
(§1) SSNMR samples: MLVs were collected by centrifugation (20,000×g) and loaded into ssNMR rotors. For 3.2 mm rotors, we used 800 nmol of antibiotic with unlabelled Lipid II or I, while we used 400 nmol with labelled Lipid II. For 1.3 mm rotors, samples contained 200 nmol of antibiotic for unlabelled Lipid II or I, while we used 100 nmol for labelled Lipid II. For all ssNMR samples, we used 4 mol%/mol Lipid II or I in the MLVs.

A short description of data set [4]: ssNMR signal intensity of Lipid II-bound teixobactin, DOPC vs DOPG liposomes.
Text: as §1
H/ppm H/ppm N spinlock duration (ms)
Weaker binding affinity to Lipid II in anionic conditions is a common property of the binding mode of teixobactins.
To validate and generalise our findings, we repeated ssNMR studies with a second analogue, [L10]-teixobactin, which is close to natural teixobactin. Both [L10]- teixobactin and [R4L10]-teixobactin show similar behaviour in anionic membranes, i.e., sharp drops in ssNMR sensitivity and marked increase in mobility in the complex. We note that only the difference between natural teixobactin and [Leu10]- teixobactin is the substitution of enduracididine10 by leucine10. We also note that the substitution by enduracididine10 by cationic or hydrophobic residues is tolerated […]
a) 1H-detected 1D NH spectra of Lipid II-bound [Leu10]-teixobactin measured in DOPC (cyan) and DOPG (red) liposomes. The signal-to-noise ratio is more than six times lower in anionic membranes. Both spectra were acquired with fully packed 1.3 mm rotors and 10240 scans each. b)15N T1rho signal decay curves of the bulk signal of Lipid II-bound [Leu10]- teixobactin in DOPC (cyan) and (DOPG (red) membranes. Relaxation is much faster […]
c) Corresponding 15N R1rho rates of Lipid II-bound [Leu10]-teixobactin in DOPC (cyan) and DOPG (red) membranes. The error bars show the standard error of the fit. Source data are provided as a Source Data file.
The spectra were acquired at 700 MHz with 60 kHz magic angle spinning (MAS).

Data set [5] concerns the molecule itself. As to the kind of experiment: solid-state NMR; 2D 13C13C PARISxy spectra with long magnetization transfer times (50-1000 ms), distance threshold ~8 Å; 13C,15N-labelled [R4L10]-teixobactin bound to unlabelled Lipid II (4 mol%) in DOPC membranes; 950 MHz, 15.5 kHz MAS, 270 K.

Bridge positions count the residues as written; N and C are the ends. Square brackets hold non-standard residues; d marks the D form. Ends that are not written are not given here. d(aIle) = CC[C@H](C)[C@@H](N)C(=O)O; dNMeF = CN[C@H](Cc1ccccc1)C(=O)O

Regarding vancomycin, the “ability to bind Lipid II versions with different pentapeptides” value in data set [1] was “unlike vancomycin”.
Leu10-teixobactin [[L10]-teixobactin]: the “Lipid II segregation into clusters on GUVs” value in data set [2] (0.1 mol% NBD-Lipid II) is “segregation of Lipid II into clusters”. Also, in data set [2] (brightfield images, cluster sites show slight membrane deformations), the “vesicle integrity and morphology after incubation” value is reported as “morphology is maintained”. Moreover, in data set [3] (Lys-LII in DOPC (Lys-LII PC)), the “Bulk 15N R1rho” value worked out at 5.29 s⁻¹ and the “Bulk 15N T1rho” value was determined as 189.00 ms. For the same molecule, in data set [3] (Lys-LII in DOPG (Lys-LII PG)), the “Bulk 15N R1rho” value came out at 18.49 s⁻¹ and the “Bulk 15N T1rho” value is 54.07 ms. Further, in data set [4] (DOPG vs DOPC, 1H-detected 1D NH spectra, 10240 scans each), the “signal-to-noise ratio, times lower in anionic membranes” value is recorded as “more than six”. For the same molecule, the “relative 1D NH signal, DOPC” value in data set [4] (Supplementary Figure 11a, DOPC (reference)) is 100%. For the same molecule, in data set [4] (Supplementary Figure 11a, DOPG relative to DOPC), the “relative 1D NH signal, DOPG” value is recorded as 15%.

B1: [R4L10]-teixobactin (peptide)
peptide: [dNMeF]IS[dR][d(aIle)]IS[dT]ALI
modifications: ester 8-C; also: 13C,15N-labelled at Ile2, Ser3, Ile6, Ser7, Ala9, Leu10
notes: Analogue of teixobactin, a natural undecapeptide from Eleftheria terrae; Cyclic depsipeptide with non-proteinogenic and D-residues; also called D-Arg4-Leu10-teixobactin; source: synthetic peptide (solid-phase synthesis, cyclised, purified by RP-HPLC)
On to B1, for which the binding result in data set [5] was “binds”.
